Data from publication PMC4925217 (FEBS letters, 2016).

Tests used:
[1] = target: T1, ScRR (ScRR1 with ScRR2•ScRR4) (Saccharomyces cerevisiae, UniProt P21524); assay: [3H]CDP reduction assay, borate chromatography, isotope counting; assay type: biochemical; details: ATP effector, 0.05 to 1 mM CDP (hexamer); labelled compound; C-site
T1 sequence (P21524 1-888): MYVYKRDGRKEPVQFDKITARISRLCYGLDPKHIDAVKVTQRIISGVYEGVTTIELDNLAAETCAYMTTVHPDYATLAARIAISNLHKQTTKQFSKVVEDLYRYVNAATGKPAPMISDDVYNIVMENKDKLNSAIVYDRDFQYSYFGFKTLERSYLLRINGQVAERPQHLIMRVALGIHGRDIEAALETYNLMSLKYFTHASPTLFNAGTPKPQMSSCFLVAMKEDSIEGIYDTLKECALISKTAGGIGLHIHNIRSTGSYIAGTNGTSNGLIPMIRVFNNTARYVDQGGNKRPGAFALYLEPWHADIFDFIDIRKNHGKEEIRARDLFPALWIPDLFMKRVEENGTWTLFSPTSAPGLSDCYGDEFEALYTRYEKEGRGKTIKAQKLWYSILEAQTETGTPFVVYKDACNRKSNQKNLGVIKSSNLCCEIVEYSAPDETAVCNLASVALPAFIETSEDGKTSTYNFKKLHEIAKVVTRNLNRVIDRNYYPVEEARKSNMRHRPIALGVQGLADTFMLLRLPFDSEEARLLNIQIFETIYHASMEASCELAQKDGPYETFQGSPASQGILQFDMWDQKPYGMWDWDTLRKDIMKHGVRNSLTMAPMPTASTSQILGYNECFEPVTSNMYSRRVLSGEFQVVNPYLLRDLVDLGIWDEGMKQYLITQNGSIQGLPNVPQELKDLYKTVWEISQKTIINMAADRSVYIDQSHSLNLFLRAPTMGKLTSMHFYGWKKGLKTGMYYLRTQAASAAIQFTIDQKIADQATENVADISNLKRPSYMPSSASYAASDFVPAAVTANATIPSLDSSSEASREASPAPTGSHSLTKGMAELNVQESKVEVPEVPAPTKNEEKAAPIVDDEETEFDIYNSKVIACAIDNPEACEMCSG
T1 sequence (P09938 1-399 partner): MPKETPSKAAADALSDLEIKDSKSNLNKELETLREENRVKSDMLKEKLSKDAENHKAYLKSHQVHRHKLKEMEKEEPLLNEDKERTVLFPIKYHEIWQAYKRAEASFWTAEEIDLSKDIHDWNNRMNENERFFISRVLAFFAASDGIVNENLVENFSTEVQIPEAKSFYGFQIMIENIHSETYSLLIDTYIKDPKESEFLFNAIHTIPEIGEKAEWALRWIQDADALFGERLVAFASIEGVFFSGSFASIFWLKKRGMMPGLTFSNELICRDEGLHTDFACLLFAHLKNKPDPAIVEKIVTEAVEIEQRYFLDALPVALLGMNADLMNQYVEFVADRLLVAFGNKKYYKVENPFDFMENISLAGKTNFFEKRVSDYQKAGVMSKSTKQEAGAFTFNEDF
T1 sequence (P49723 1-345 partner): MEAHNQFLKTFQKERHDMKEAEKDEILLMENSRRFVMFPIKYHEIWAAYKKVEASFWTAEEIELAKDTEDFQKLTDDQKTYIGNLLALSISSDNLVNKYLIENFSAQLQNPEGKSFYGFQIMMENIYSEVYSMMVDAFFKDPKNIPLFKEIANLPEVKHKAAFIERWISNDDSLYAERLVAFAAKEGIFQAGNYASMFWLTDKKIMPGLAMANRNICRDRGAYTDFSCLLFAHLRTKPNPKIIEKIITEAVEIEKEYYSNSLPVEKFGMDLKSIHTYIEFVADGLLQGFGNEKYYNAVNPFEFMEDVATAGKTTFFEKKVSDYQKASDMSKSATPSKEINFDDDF

[2] = target: T1, ScRR (ScRR1 with ScRR2•ScRR4); assay: NDP reduction assay; assay type: biochemical; details: read-out: % inhibition at 20 μM

Row | inhibition at 20 µM [2] [%] | Compound | [3H]CDP reduction assay, borate chromatography, isotope counting [1]
1 |  | Nc1ccn([C@@H]2O[C@H](COP(=O)(O)OP(=O)(O)O)[C@@H](O)[C@H]2O)c(=O)n1 [CDP] | When ATP/CDP was used as the effector-substrate pair, [^3H]CDP concentrations were varied
2 | ~50 | Nc1ncnc2c1ncn2[C@H]1C[C@H](O)[C@@H](COP(=O)(O)OP(=O)(O)OP(=O)(O)O)O1 [dATP] | 
